ChEMBL document CHEMBL1201862, “PubChem BioAssay data set” (2004)
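Interpolation was linear, between the two tested concentrations surrounding the appropriate level; five concentrations were tested over 48 hours in 96-well plates. GI50: concentration for 50% inhibition of growth.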 The source made the active and inactive calls. Cut-off read from the data, not from the text of the source: active = GI50 up to about 1.1 µM and inactive = higher.

Columns and labels:
Experiment in all cases: NCI-60 cell line screen, 48 h
HCT-15 = tested on: HCT-15
MCF7 = tested on: MCF7
786-0 = tested on: 786-0
EKVX = tested on: EKVX
HT-29 = tested on: HT-29
OVCAR-3 = tested on: OVCAR-3
SF-539 = tested on: SF-539
UO-31 = tested on: UO-31
UACC-257 = tested on: UACC-257
Hs-578T = tested on: Hs-578T
HOP-92 = tested on: HOP-92
NCI-H460 = tested on: NCI-H460
M14 = tested on: M14
PC-3 = tested on: PC-3
NCI-H23 = tested on: NCI-H23
COLO 205 = tested on: COLO 205
OVCAR-8 = tested on: OVCAR-8
SF-295 = tested on: SF-295
ACHN = tested on: ACHN
NCI-H522 = tested on: NCI-H522

| SMILES | GI50 (HCT-15) [µM] | GI50 (MCF7) | GI50 (786-0) | GI50 (EKVX) | GI50 (HT-29) | GI50 (OVCAR-3) | GI50 (SF-539) | GI50 (UO-31) | GI50 (UACC-257) | GI50 (Hs-578T) | GI50 (HOP-92) | GI50 (NCI-H460) | GI50 (M14) | GI50 (PC-3) | GI50 (NCI-H23) | GI50 (COLO 205) | GI50 (OVCAR-8) | GI50 (SF-295) | GI50 (ACHN) | GI50 (NCI-H522) |
| --- | --- | --- | --- | --- | --- | --- | --- | --- | --- | --- | --- | --- | --- | --- | --- | --- | --- | --- | --- | --- |
| c1ccc(-c2cc(-c3cccs3)c(-c3cccs3)o2)cc1 | > 100 | 32.2 µM (inactive) | > 100 µM (inactive) | > 100 µM (inactive) | > 100 µM (inactive) | 61.1 µM (inactive) | > 100 µM (inactive) | > 100 µM (inactive) | > 100 µM (inactive) | > 100 µM (inactive) | > 100 µM (inactive) | > 100 µM (inactive) | > 100 µM (inactive) | > 100 µM (inactive) | > 100 µM (inactive) | > 100 µM (inactive) | > 100 µM (inactive) | > 100 µM (inactive) | > 100 µM (inactive) | – |
| CC(C)(C)n1c(=O)n(-c2ccccc2)n(C(C)(C)C)c1=O | > 100 | > 100 µM (inactive) | > 100 µM (inactive) | > 100 µM (inactive) | > 100 µM (inactive) | > 100 µM (inactive) | > 100 µM (inactive) | > 100 µM (inactive) | > 100 µM (inactive) | > 100 µM (inactive) | > 100 µM (inactive) | > 100 µM (inactive) | > 100 µM (inactive) | > 100 µM (inactive) | > 100 µM (inactive) | > 100 µM (inactive) | > 100 µM (inactive) | > 100 µM (inactive) | > 100 µM (inactive) | – |
| Cc1c(N=C(S)Nc2ccc(Cl)cc2)c(=O)n(-c2ccccc2)n1C | > 100 | > 100 µM (inactive) | > 100 µM (inactive) | > 100 µM (inactive) | > 100 µM (inactive) | > 100 µM (inactive) | > 100 µM (inactive) | > 100 µM (inactive) | > 100 µM (inactive) | > 100 µM (inactive) | > 100 µM (inactive) | > 100 µM (inactive) | > 100 µM (inactive) | > 100 µM (inactive) | > 100 µM (inactive) | > 100 µM (inactive) | – | > 100 µM (inactive) | > 100 µM (inactive) | > 100 µM (inactive) |
| CSc1cc(-c2cccs2)sc1-c1cc(SC)c(-c2sc(-c3sc(-c4cccs4)cc3SC)cc2SC)s1 | > 100 | > 100 µM (inactive) | > 100 µM (inactive) | > 100 µM (inactive) | > 100 µM (inactive) | > 100 µM (inactive) | > 100 µM (inactive) | – | > 100 µM (inactive) | > 100 µM (inactive) | > 100 µM (inactive) | > 100 µM (inactive) | > 100 µM (inactive) | > 100 µM (inactive) | > 100 µM (inactive) | > 100 µM (inactive) | > 100 µM (inactive) | > 100 µM (inactive) | > 100 µM (inactive) | > 100 µM (inactive) |
| COc1ccc(NC(=O)/C(=N\NC(=O)C[n+]2ccccc2)c2c(O)c3ccc(O)cc3oc2=O)c([N+](=O)[O-])c1 | > 100 | > 100 µM (inactive) | > 100 µM (inactive) | > 100 µM (inactive) | > 100 µM (inactive) | > 100 µM (inactive) | > 100 µM (inactive) | > 100 µM (inactive) | > 100 µM (inactive) | > 100 µM (inactive) | 32.3 µM (inactive) | > 100 µM (inactive) | > 100 µM (inactive) | > 100 µM (inactive) | > 100 µM (inactive) | > 100 µM (inactive) | > 100 µM (inactive) | > 100 µM (inactive) | > 100 µM (inactive) | > 100 µM (inactive) |
| C=CCn1c(N)c(C#N)c(C#N)c1-c1ccccc1 | > 100 | > 100 µM (inactive) | > 100 µM (inactive) | 57.7 µM (inactive) | > 100 µM (inactive) | > 100 µM (inactive) | > 100 µM (inactive) | > 100 µM (inactive) | > 100 µM (inactive) | > 100 µM (inactive) | > 100 µM (inactive) | – | > 100 µM (inactive) | > 100 µM (inactive) | > 100 µM (inactive) | > 100 µM (inactive) | > 100 µM (inactive) | > 100 µM (inactive) | > 100 µM (inactive) | > 100 µM (inactive) |
| CCOC(=O)C1CCC(=O)N1C(=O)c1ccccc1Cl (stereo unspecified) | > 100 | > 100 µM (inactive) | > 100 µM (inactive) | > 100 µM (inactive) | > 100 µM (inactive) | > 100 µM (inactive) | > 100 µM (inactive) | > 100 µM (inactive) | > 100 µM (inactive) | > 100 µM (inactive) | > 100 µM (inactive) | > 100 µM (inactive) | > 100 µM (inactive) | > 100 µM (inactive) | > 100 µM (inactive) | – | > 100 µM (inactive) | > 100 µM (inactive) | > 100 µM (inactive) | > 100 µM (inactive) |
| COC(=O)C1(Cc2ccc3c(c2)CCC3)Cc2ccccc2C1=O (stereo unspecified) | 6.76 | 7.06 µM (inactive) | 24.5 µM (inactive) | 17.3 µM (inactive) | 5.46 µM (inactive) | 14.5 µM (inactive) | 16 µM (inactive) | 17.1 µM (inactive) | 18.5 µM (inactive) | 13.4 µM (inactive) | – | 28.4 µM (inactive) | 9.53 µM (inactive) | 7.69 µM (inactive) | 19 µM (inactive) | 9.66 µM (inactive) | 26.1 µM (inactive) | 9.98 µM (inactive) | 33.3 µM (inactive) | 7.66 µM (inactive) |
| CCCCCCCC/C=C\CCCCCCCC(=O)OC[C@]1(CO)CCC(=O)O1 | > 100 | > 100 µM (inactive) | > 100 µM (inactive) | > 100 µM (inactive) | > 100 µM (inactive) | > 100 µM (inactive) | – | > 100 µM (inactive) | > 100 µM (inactive) | > 100 µM (inactive) | > 100 µM (inactive) | > 100 µM (inactive) | > 100 µM (inactive) | > 100 µM (inactive) | > 100 µM (inactive) | > 100 µM (inactive) | > 100 µM (inactive) | > 100 µM (inactive) | > 100 µM (inactive) | > 100 µM (inactive) |
| C/C=C(\C)c1cc(=O)c2c(C)cc3c(c2o1)C(OC)(OC(C)=O)c1c(O)c(C2CC(C)(N(C)C)C(OC(C)=O)C(C)O2)cc(C2CC(N(C)C)C(OC(C)=O)C(C)O2)c1C3=O (stereo unspecified) | 1.05 | 1.64 µM (inactive) | 0.288 µM (active) | 1.07 µM (active) | 0.489 µM (active) | 2.28 µM (inactive) | 1.55 µM (inactive) | 1.57 µM (inactive) | 1.55 µM (inactive) | 1.16 µM (inactive) | 1.28 µM (inactive) | – | 1.24 µM (inactive) | 1.16 µM (inactive) | 1.02 µM (active) | 1.24 µM (inactive) | 0.552 µM (active) | 0.942 µM (active) | 0.202 µM (active) | 0.254 µM (active) |
| Nc1ncnc2c1N=C(c1ccccc1)CC(c1ccccc1)N2 (stereo unspecified) | > 100 | > 100 µM (inactive) | > 100 µM (inactive) | > 100 µM (inactive) | > 100 µM (inactive) | > 100 µM (inactive) | > 100 µM (inactive) | > 100 µM (inactive) | > 100 µM (inactive) | 39.4 µM (inactive) | > 100 µM (inactive) | – | > 100 µM (inactive) | > 100 µM (inactive) | > 100 µM (inactive) | > 100 µM (inactive) | > 100 µM (inactive) | > 100 µM (inactive) | > 100 µM (inactive) | > 100 µM (inactive) |
| CCCCCCc1cc2cc(-c3cn4ccsc4n3)c(=O)oc2cc1O | > 90.4 | 99.5 µM (inactive) | > 56.9 µM (inactive) | > 77.6 µM (inactive) | > 100 µM (inactive) | > 77.1 µM (inactive) | 64.3 µM (inactive) | > 100 µM (inactive) | > 24.5 µM (inactive) | 20.4 µM (inactive) | > 100 µM (inactive) | > 100 µM (inactive) | – | > 100 µM (inactive) | > 82 µM (inactive) | > 100 µM (inactive) | > 53.3 µM (inactive) | > 100 µM (inactive) | > 100 µM (inactive) | 29.2 µM (inactive) |
| COCOc1cc(OC)ccc1C/C(=N/O)C(=O)OC | > 100 | > 100 µM (inactive) | > 100 µM (inactive) | > 100 µM (inactive) | > 100 µM (inactive) | > 100 µM (inactive) | > 100 µM (inactive) | > 100 µM (inactive) | > 100 µM (inactive) | > 100 µM (inactive) | – | > 100 µM (inactive) | > 100 µM (inactive) | > 100 µM (inactive) | > 100 µM (inactive) | > 100 µM (inactive) | > 100 µM (inactive) | > 100 µM (inactive) | > 100 µM (inactive) | > 100 µM (inactive) |
| O=S(=O)(c1ccccc1)n1c(C(O)c2ccccc2)cc2ccccc21 (stereo unspecified) | 21.3 | 21.2 µM (inactive) | 14.1 µM (inactive) | 17.4 µM (inactive) | 13.4 µM (inactive) | 16.7 µM (inactive) | 16.7 µM (inactive) | 11.7 µM (inactive) | 16.2 µM (inactive) | 10.9 µM (inactive) | 12.7 µM (inactive) | 25.3 µM (inactive) | 14.9 µM (inactive) | 15.7 µM (inactive) | 18.9 µM (inactive) | 15.9 µM (inactive) | 16.9 µM (inactive) | 16.9 µM (inactive) | 15.7 µM (inactive) | – |
| CC(C)CCC(=O)c1ccoc1 [PERILLAKETONE] | > 100 | > 100 µM (inactive) | > 100 µM (inactive) | > 100 µM (inactive) | > 100 µM (inactive) | > 100 µM (inactive) | > 100 µM (inactive) | > 100 µM (inactive) | > 100 µM (inactive) | > 100 µM (inactive) | > 100 µM (inactive) | > 100 µM (inactive) | > 100 µM (inactive) | > 100 µM (inactive) | > 100 µM (inactive) | > 100 µM (inactive) | > 100 µM (inactive) | > 100 µM (inactive) | > 100 µM (inactive) | – |
